Test results as given in ChEMBL document CHEMBL3352766, “Weakly anti-inflammatory limonoids from the seeds of Xylocarpus rumphii” (J Nat Prod, 2014).
The source made the active and inactive calls. The calls are words filed in the database; no cut-off is given here.

Tested on: J774.A1
Test: Antiinflammatory activity in mouse J774.A1 cells assessed as inhibition of LPS-induced NO production treated 2 hrs before LPS challenge measured after 20 hrs
Type: functional, cell-based

IC50 | Structure (SMILES)
24.5 µM | CC[C@H](C)C(=O)O[C@H]1[C@@]23O[C@]4(O)[C@@](C)([C@@H](CC(=O)OC)C(C)(C)[C@H](OC(=O)C(C)C)[C@]14O)[C@H]2CC[C@]1(C)[C@H]3CC(=O)O[C@H]1c1ccoc1
31.3 µM | CC[C@H](C)C(=O)O[C@H]1C(C)(C)[C@H](CC(=O)OC)[C@@]2(C)[C@H]3CC[C@]4(C)C(=CC(=O)O[C@H]4c4ccoc4)[C@]34O[C@@]2(O)[C@@]1(O)[C@H]4OC(=O)[C@@H](C)CC
28.6 µM | COc1ccc2c(c1)c(CC(=O)O)c(C)n2C(=O)c1ccc(Cl)cc1 [INDOMETHACIN]

Tested on: J774.A1
Test: Antiinflammatory activity in mouse J774.A1 cells assessed as inhibition of LPS-induced NO production at 50 uM treated 2 hrs before LPS challenge measured after 20 hrs
Type: functional, cell-based

Structure (SMILES) | inhibition
CC[C@H](C)C(=O)O[C@H]1C(C)(C)[C@H](CC(=O)OC)[C@@]2(C)[C@H]3CC[C@]4(C)C(=CC(=O)O[C@H]4c4ccoc4)[C@]34O[C@@]2(O)[C@@]1(O)[C@H]4OC(=O)C(C)C | inactive
CC[C@H](C)C(=O)O[C@H]1C(C)(C)[C@H](CC(=O)OC)[C@@]2(C)[C@H]3CC[C@]4(C)[C@@H](CC(=O)O[C@H]4c4ccoc4)[C@]34O[C@@]2(O)[C@@]1(O)[C@H]4OC(=O)[C@@H](C)CC | inactive
COC(=O)C[C@H]1[C@]2(C)C[C@@]34OC5(C)O[C@]6([C@@H]7[C@H](O)C(=O)O[C@@H](c8ccoc8)[C@]7(C)CC[C@]6(O5)[C@]13C)[C@H](OC(C)=O)[C@@]4(OC(C)=O)[C@H]2OC(C)=O | inactive
COC(=O)C[C@H]1C(C)(C)[C@H](OC(C)=O)[C@]2(O)[C@@H](OC(=O)C(C)C)[C@@]34O[C@]2(O)[C@]1(C)[C@H]3CC[C@]1(C)[C@H]4CC(=O)O[C@H]1c1ccoc1 | inactive
COC(=O)C[C@H]1C(C)(C)[C@H](OC(=O)C(C)C)[C@@H]2[C@@H](OC(=O)C(C)C)[C@@]34O[C@]2(O)[C@]1(C)[C@H]3CC[C@]1(C)[C@H]4CC(=O)O[C@H]1c1ccoc1 | inactive
CC[C@H](C)C(=O)O[C@@H]1[C@H]2[C@@H](OC(=O)C(C)C)C(C)(C)[C@H](CC(=O)OC)[C@@]3(C)[C@H]4CC[C@]5(C)[C@@H](CC(=O)O[C@H]5c5ccoc5)[C@@]14O[C@@]23O | inactive
